Measurements: US9656984B2, “PI3K/AKT/mTOR inhibitors and pharmaceutical uses thereof” (UNIVERSITE DE RENNES 1, priority 2013, dated 2017)
pIC50: −log10 of the molar value.

How the values were obtained:
[1] = tested on: MCF-7 (ER-positive) breast tumor cell line; assay: Cell death by MTT assay, MCF-7; assay type: cell-based, human; conditions: 24 hours, mean of four experiments
Procedure: (§1) The ER-positive breast tumor cell lines MCF-7 and T47-D and the HER2 positive breast tumor cell lines MDA-MB-453 and BT474 (also ER-positive) were incubated with the indicated concentration of each mentioned compound of formula (I) for 24 hours and then cell death was assessed using MTT assay.
(§2) For each cell line, the percentage of cell death (mean of four experiments for cell lines MCF-7 and T47-D, and two experiments for cell lines MDA-MB-453 and BT474) is given in view of the increasing concentration of each tested compound of the invention.
(§3) Cell viability was assessed using the 3-[4,5-dimethylthiazol-2-yl]-2,5-diphenyltetrazolium bromide (MTT) viability assay (1). In brief, cells (4×10^4 per well) were cultured for 20 h in flat-bottomed 96 well plates with various concentrations of the apoptosis inducer. Then 0.015 ml of MTT (5 mg/ml in PBS) was added to each well and incubated for 4 h at 37° C. Formazan salt precipitats were dissolved by adding 0.115 ml of isopropyl alcohol containing 1% formic acid (v/v), and the absorbance was measured at 570 nm.

[2] = tested on: BT474 (ER-positive/HER2-positive) breast tumor cell line; assay: Cell death by MTT assay, BT474; assay type: cell-based, human; conditions: 24 hours, mean of two experiments
Procedure: as §1, §2, §3

AKT phosphorylation = assay: In cellulo IC50 of AKT phosphorylation in CEM cells (Western blot densitometry); assay type: cell-based; conditions: Homo sapiens, CCRF-CEM, 2 hours incubation, AKT phosphorylation vs whole AKT, read-out: In vivo IC50
Procedure: CEM cells were incubated for 2 hours with the indicated concentrations of each mentioned compound of formula (I). Cells were then lysed and 100 μg of protein was loaded per line in an SDS-PAGE. Bands from AKT phosphorylation and whole AKT observed by Western blot were scanned and quantified by densitometric analysis. Based on these values, an in cellulo IC50 (half maximal inhibitory concentration) was measured for each compound of formula (I).
Immunoblots Excepted for immunoprecipitation experiments in which cells were lyzed with RIPA buffer, cells were lyzed for 30 min at 4° C. in Lysis buffer (25 mM HEPES pH 7.4, 1% v/v Triton X-100, 150 mM NaCl, 2 mM EGTA supplemented with a mix of protease inhibitors). Protein concentration was determined by the bicinchoninic acid method (Pierce, Rockford, Ill., USA) according to the manufacturer's protocol. Proteins were resolved by 8, 10 or 12% SDS-PAGE and transferred to a nitrocellulose membrane (GE Healthcare, Buckinghamshire, UK). The membrane was blocked 15 min with TBST (50 mM Tris, 160 mM NaCl, 0.05% v/v Tween 20, pH 7.4) containing 5% w/v dried skimmed milk (TBS™). Primary antibody was incubated overnight at 4° C. in TBS™. The membrane was intensively washed (TBST) and then the peroxydase-labeled anti-mouse IgG1 or IgG2a (CliniSciences, Nanterre, France) was added for 45 min. Proteins were visualized with the enhanced chemiluminescence substrate kit (ECL RevelBIOt®, Ozyme, Saint Quentin en Yvelines, France).

BT549 cells = assay: Boyden chamber cell migration, BT549 stimulated with CD95L; assay type: cell-based, human; conditions: BT549, 1 μM, CD95L 100 ng/ml, 24 hours, FIG. 17A
Procedure: TNBC (MDA-MB-231 and BT549) cell lines were pre-incubated for 1 hour in presence or absence of non-cytotoxic amount of compound 25 (1 μM) and then treated or untreated with CD95L (100 ng/ml) for 24 hours. Cell migration was analyzed using Boyden chamber assay. Migrating Giemsa-stained cells were lysed and absorbance was measured at a wavelength of 560 nm. Values represent the means±SEM of three independently performed experiments. *p<0.05 as calculated using two-tailed Mann-Whitney test.
After membrane hydration of Boyden chambers (Millipore, Molsheim, France) containing 8 μm pore membranes, 10^5 cells were added to the top chamber. The bottom chamber was filled with low serum (1%)-containing medium in the presence or absence of cl-CD95L (100 ng/ml). Breast cancer cells were incubated for 24 h. To quantify invasion, cells were fixed with methanol and stained with Giemsa. Stained cells were then removed from the top-side of the membrane using a cotton-tipped swab and five representative pictures for each insert were taken of the invading cells from the reverse side. For each experiment, invading cells were lysed and absorbance at 560 nm was measured.

[3] = tested on: T47-D (ER-positive) breast tumor cell line; assay: Cell death by MTT assay, T47-D; assay type: cell-based, human; conditions: 24 hours, mean of four experiments
Procedure: as §1, §2, §3

[4] = tested on: MDA-MB-453 (HER2 positive) breast tumor cell line; assay: Cell death by MTT assay, MDA-MB-453; assay type: cell-based, human; conditions: 24 hours, mean of two experiments
Procedure: as §1, §2, §3

[5] = In vivo toxicity, repeated intravenous injections in mice; conditions: 10 mg/kg
Procedure: Mice received repeated intravenous injections of compound 25 (10 mg/kg) or vehicle.

[6] = tested on: TSC2^−/− AML (AngioMyoLipoma) cells; assay: Cell viability by MTT assay on TSC2^−/− and TSC2^+/+ AML cells; assay type: cell-based, human; conditions: 16 hours, 1% fetal calf serum
Procedure: AML (AngioMyoLipoma) cells from a patient (generous gift from Dr M. Pende, Paris) were enriched for TSC2^−/− cells, as a model of tuberous sclerosis. These cells have been reconstituted with wild type TSC2 (TSC2^+/+). Cell proliferation was assessed in cells from angiomyolipomas and their counterparts reconstituted with wild type TSC2.
Cell viability was assessed by MTT assay. Cells were incubated for 16 hours in a 1% fetal calf serum-containing medium supplemented with the indicated concentrations of the two mTOR inhibitors, compound 25 or rapamycin (see FIGS. 14B and 14C). Data represent mean and standard deviation of three independent experiments.
as §3

O=[N+]([O-])C1=Cc2cc(Br)cc(Br)c2OC1c1ccc(Br)cc1 (stereo not drawn) [Compound 25, 6,8-dibromo-2-(4-bromo-phenyl)-3-nitro-2H-chromene]
percentage of cell death ([1]; MCF-7, 6.25 μM): 47.86% | percentage of cell death ([1]; MCF-7, 12.5 μM): 63.54% | percentage of cell death ([1]; MCF-7, 25 μM): 76.72% | percentage of cell death ([1]; MCF-7, 50 μM): 94.09% | percentage of cell death ([2]; BT474, 6.25 μM): 75.54% | percentage of cell death ([2]; BT474, 12.5 μM): 95.61% | percentage of cell death ([2]; BT474, 25 μM): 90.49% | percentage of cell death ([2]; BT474, 50 μM): 96.81% | pIC50 (AKT phosphorylation): 5.52 | migration of tumor cells stimulated with CD95L (BT549 cells): abrogate | percentage of cell death ([3]; 6.25 μM): 85.31% | percentage of cell death ([3]; 12.5 μM): 91.27% | percentage of cell death ([3]; 25 μM): 90.23% | percentage of cell death ([3]; 50 μM): 91.25% | percentage of cell death ([4]; MDA-MB-453, 0.390625 μM): 0% | percentage of cell death ([4]; MDA-MB-453, 0.78125 μM): 9.09% | percentage of cell death ([4]; MDA-MB-453, 1.5625 μM): 81% | percentage of cell death ([4]; MDA-MB-453, 3.125 μM): 85.57% | percentage of cell death ([4]; MDA-MB-453, 6.25 μM): 89.213% | percentage of cell death ([4]; MDA-MB-453, 12.5 μM): 95.09% | percentage of cell death ([4]; MDA-MB-453, 25 μM): 99.35% | percentage of cell death ([4]; MDA-MB-453, 50 μM): 100.76% | toxicity in mice [5]: did not exhibit toxicity | body weight of the tested mice ([5]; FIG. 13A): maintained | survival of the tested mice ([5]; at 7 days, FIG. 13B): all mice survived | sensitivity of TSC2^−/− cells versus wild type TSC2^+/+ cells (cell death, MTT) ([6]; FIG. 14B): more sensitive | efficiency to kill TSC2^−/− cells compared with rapamycin ([6]; FIGS. 14B and 14C): more efficient
